These results are taken from US11731946B2, “Broad spectrum antivirulence, anti-persistence compounds” (priority 2017, dated 2023).

What is called IC50 is the point on the concentration scale where inhibition reaches its midpoint.

One assay relates to MvfR regulon. Kind of assay: Quantification of pyocyanin (OD520nm of chloroform-extracted cultures). It is filed as cell-based, P. aeruginosa. Particulars: Pseudomonas aeruginosa, read-out: pyocyanin @50 uM (%), compound at 50 uM.
`Cc1cc(F)ccc1NCC(=O)NCC(F)(F)F` [Compound 29]: the activity at 50 µM stood at 110%.
For the compound `Cc1ccc(F)cc1NCC(=O)Nc1ccc(C#N)cc1` [Compound 30], the activity at 50 µM came out at 68.5%.
Regarding `Cc1cc(F)ccc1NCC(=O)Nc1ccc(C(=O)N(C)C)cc1` [Compound 31], the activity at 50 µM was determined as 109%.
Take `Cc1ccc(NCC(=O)N(C)c2ccccc2)c(C)c1` [Compound 32]: the activity at 50 µM came to 111%.
Still for that read-out and setting: in the case of `Cc1ccc(NC(=O)CNc2ccc(F)cc2C)c(C)c1` [Compound 33] it was 112%.
`Cc1cc(F)ccc1NCC(=O)Nc1cccc(Cl)c1` [Compound 34]: the activity at 50 µM came to 96.1%.
Consider `Cc1cc(F)ccc1NCC(=O)NC1CC1` [Compound 35], for which the activity at 50 µM was found to be 107%.
The same measure, in the same setting: in the case of `N#Cc1ccc(NCC(=O)Nc2ccc(F)cc2)cc1` [Compound 36] it was 59.1%; in that of `N#Cc1ccc(NC(=O)CNc2ccccc2F)cc1` [Compound 37], 97.3%.
As for `Cc1ccccc1NCC(=O)Nc1ccccc1` [Compound 38], the activity at 50 µM was determined as 102%.
`CC(=O)Nc1cccc(NCC(=O)Nc2ccc(C#N)cc2)c1C` [Compound 39]: the activity at 50 µM is 93.4%.
In the case of `Cc1ccc(NCC(=O)Nc2ccc(C#N)cc2)cc1F` [Compound 40], the activity at 50 µM turned out to be 59.5%.
`Cc1ccc(NCC(=O)Nc2ccccc2)c(C)c1` [Compound 41]: the activity at 50 µM was determined as 94.5%.
Turning to `CC(=O)c1ccccc1NC(=O)CNc1ccc(F)cc1C` [Compound 42], the activity at 50 µM was 91.4%.
With `Cc1cc(NC(=O)CNc2ccc(F)cc2C)ccc1Br` [Compound 43], the activity at 50 µM turned out to be 68.5%.
As for `COc1cccc(NC(=O)CNc2ccc(F)cc2C)c1` [Compound 44], the activity at 50 µM was 92.2%.
As to `CC(C)c1ccc(NCC(=O)Nc2ccc(C#N)cc2)cc1` [Compound 45], the activity at 50 µM was 59.1%.
For the compound `O=C(CC(=O)Nc1ccc(Oc2ccccc2)cc1)Nc1ccc(I)cc1` [Compound 74], the activity at 50 µM is 71.8%.
On to `Nc1cc([N+](=O)[O-])ccc1NC(=O)CC(=O)Nc1ccc(Oc2ccccc2)cc1` [Compound 75], for which the activity at 50 µM is 6.13%.
For `O=C(CC(=O)Nc1ccc(Oc2ccccc2)cc1)Nc1ccc(Br)cc1` [Compound 79], the activity at 50 µM was determined as 47.7%.

The assay is the same for the next values; noted with them: compound at 1 uM; listed as D51P.
As for `N#Cc1ccc(NC(=O)CC(=O)Nc2ccc([N+](=O)[O-])cc2)cc1` [Compound 66], the “pyocyanin @1 uM (%)” value is given as 61.28%.

Staying with this assay, now noted: compound at 10 uM; listed as D51P.
Consider `N#Cc1ccc(NC(=O)CC(=O)Nc2ccc([N+](=O)[O-])cc2)cc1` [Compound 66], for which the “pyocyanin @10 uM (%)” value amounted to 24.86%.

The same assay, now with this note: compound at 50 uM; listed as D1.
As to `Cc1cc(F)ccc1NC(C)C(=O)Nc1ccc(C#N)cc1` (stereo not shown) [Compound 13], the “pyocyanin @50 uM (%)” value is 101.56%.

Staying with this assay, now noted: compound at 50 uM; listed as D51P.
As for `N#Cc1ccc(NC(=O)CC(=O)Nc2ccc([N+](=O)[O-])cc2)cc1` [Compound 66], the “pyocyanin @50 uM (%)” value came out at 4.00%.

The same assay, now with this note: read-out: IC50 pyocyanin.
With `N#Cc1ccc(NC(=O)CC(=O)Nc2ccc([N+](=O)[O-])cc2)cc1` [Compound 66], the IC50 was 0.84 µM.

In a further assay the test system is MvfR regulon. The experiment in a line: pqsA gene expression (pqsA-GFP reporter). It is filed as cell-based, P. aeruginosa. Particulars: Pseudomonas aeruginosa, read-out: pqsA @10 uM (%), compound at 10 uM. On the procedure:
Experiments were performed to identify compounds that inhibit the MvfR regulon without altering growth, ultimately attenuating P. aeruginosa infection. MvfR is a LysR-type transcriptional regulator that directs HAQs synthesis, including that of its ligands, 4-hydroxy-2-heptylquinoline (HHQ) and 3,4-dihydroxy-2-heptylquinoline (PQS).
MvfR promotes the production of HAQs by binding to and activating the pqs operon, which encodes enzymes for HAQ synthesis. Anthranilic acid (AA), derived from the phnAB, kynABU, and trpEG pathways, is the precursor for HAQs. pqsA encodes an anthranilate-coenzyme A ligase, which activates anthranilic acid and catalyzes the first committed step to HAQ production. The exact roles of PqsB and PqsC are unknown, though both show homology to acyl-carrier-proteins and both are required for HHQ and PQS production. […] The final gene of the operon, pqsE encodes for a putative hydrolase, and while the protein is not required for the synthesis of HAQs, it is necessary for pyocyanin production.
Nanomolar levels of most of these MvfR antagonists impeded the activity of MvfR and in consequence the MvfR virulence regulated ACRP functions, including: (1) the production of the important pro-acute P. aeruginosa virulence factor pyocyanin (see e.g., FIG. 9A) the efficacy of two of these potent inhibitors, D57 and D88, was also confirmed by testing many different MDR P. aeruginosa clinical isolates (see e.g., FIG. 11A-11B), providing further confidence of their inhibitory potency; (2) the expression of the genes that encode the enzymes catalyzing the synthesis of both pro-acute and pro-persistence MvfR-regulated virulence molecules, 4-hydroxyl-2-alkyl-quinolines (HAQs) and 2-aminoacetophenon (2-AA), as assessed by pqsAGFP reporter gene expression (see e.g., FIG. 9B) and HAQ production showing the levels of MvfR inducers/ligands HHQ and PQS as well as of the molecules critical for biofilm and Antibiotic tolerant/persiters cells formation HQNO and 2-AA (see e.g., FIG. 9C); (3) AT/P cell formation (see e.g., FIGS. 11A, 12A); (4) biofilm formation (see e.g., FIG. 12B); and (5) biofilm dispersal of preformed biofilm by potentiating antibiotic action (see e.g., FIG. 11B).
For the compound `N#Cc1ccc(NC(=O)CC(=O)Nc2ccc([N+](=O)[O-])cc2)cc1` [Compound 66], the activity at 10 µM was 1.51%.
For the compound `O=C(CC(=O)Nc1ccc(Oc2ccccc2)cc1)Nc1ccc(I)cc1` [Compound 74], the activity at 10 µM was 86%.
`Nc1cc([N+](=O)[O-])ccc1NC(=O)CC(=O)Nc1ccc(Oc2ccccc2)cc1` [Compound 75]: the activity at 10 µM was determined as 9.83%.
Still for that read-out and setting: then `O=C(CC(=O)Nc1ccc(Oc2ccccc2)cc1)Nc1ccc(Br)cc1` [Compound 79], with 64.5%.

Still in this assay, the particulars now being: Pseudomonas aeruginosa, read-out: pqsA @50 uM (%), compound at 50 uM.
As for `Cc1cc(F)ccc1NCC(=O)NCC(F)(F)F` [Compound 29], the activity at 50 µM is 70%.
Still for that read-out and setting: then `Cc1ccc(F)cc1NCC(=O)Nc1ccc(C#N)cc1` [Compound 30], with 28.1%.
Still for that read-out and setting: then `Cc1cc(F)ccc1NCC(=O)Nc1ccc(C(=O)N(C)C)cc1` [Compound 31], with 99.8%; and `Cc1ccc(NCC(=O)N(C)c2ccccc2)c(C)c1` [Compound 32], with 88%.
On the same count and under the same terms, in the case of `Cc1ccc(NC(=O)CNc2ccc(F)cc2C)c(C)c1` [Compound 33] it was 87.3%; in that of `Cc1cc(F)ccc1NCC(=O)Nc1cccc(Cl)c1` [Compound 34], 70.9%; in that of `Cc1cc(F)ccc1NCC(=O)NC1CC1` [Compound 35], 92.5%.
Consider `N#Cc1ccc(NCC(=O)Nc2ccc(F)cc2)cc1` [Compound 36], for which the activity at 50 µM is 25.5%.
Regarding `N#Cc1ccc(NC(=O)CNc2ccccc2F)cc1` [Compound 37], the activity at 50 µM was determined as 84%.
Same read-out and setting: in the case of `Cc1ccccc1NCC(=O)Nc1ccccc1` [Compound 38] it was 95.4%; in that of `CC(=O)Nc1cccc(NCC(=O)Nc2ccc(C#N)cc2)c1C` [Compound 39], 99.5%.
For `Cc1ccc(NCC(=O)Nc2ccc(C#N)cc2)cc1F` [Compound 40], the activity at 50 µM is 42%.
For `Cc1ccc(NCC(=O)Nc2ccccc2)c(C)c1` [Compound 41], the activity at 50 µM came to 92.8%.
As to `CC(=O)c1ccccc1NC(=O)CNc1ccc(F)cc1C` [Compound 42], the activity at 50 µM amounted to 94.2%.
As for `Cc1cc(NC(=O)CNc2ccc(F)cc2C)ccc1Br` [Compound 43], the activity at 50 µM turned out to be 47%.
As for `COc1cccc(NC(=O)CNc2ccc(F)cc2C)c1` [Compound 44], the activity at 50 µM was determined as 93.7%.
On to `CC(C)c1ccc(NCC(=O)Nc2ccc(C#N)cc2)cc1` [Compound 45], for which the activity at 50 µM was found to be 52.8%.
In the case of `O=C(CC(=O)Nc1ccc(Oc2ccccc2)cc1)Nc1ccc(I)cc1` [Compound 74], the activity at 50 µM is 81.2%.
Turning to `O=C(CC(=O)Nc1ccc(Oc2ccccc2)cc1)Nc1ccc(Br)cc1` [Compound 79], the activity at 50 µM was found to be 60.5%.

Staying with this assay, now noted: compound at 50 uM; listed as D1.
As to `Cc1cc(F)ccc1NC(C)C(=O)Nc1ccc(C#N)cc1` (stereo not shown) [Compound 13], the “pqsA @50 uM (%)” value was determined as 88.58%.
